Data as given in US4482553A, “Benzothienylglycyl cephalosporin derivatives” (priority 1983, dated 1984).
≈ marks a conversion by molar mass, not a printed value. Where two headings read alike, the source gives them in different places.

Assays:
Type in all cases: cell-based
Staph. epi [1] = assay: standard in vitro agar dilution MIC (Table I), Staph. epi; conditions: Table I, agar dilution
Staph. aureus [2] = assay: standard in vitro agar dilution MIC (Table I), Staph. aureus
H. influ. [3] = assay: standard in vitro agar dilution MIC (Table I), H. influ.
Description: (§1) The antibacterial activity of several compounds of the invention has been determined in standard in vitro agar dilution assays against a variety of gram positive and gram negative microorganisms. The following Tables present typical minimum inhibitory concentrations (MIC's) in μg/ml for several compounds of the invention when evaluated against the indicated microorganisms. MIC's for several known compounds are also presented for comparison.

Staph. epi [4] = assay: Expanded Spectrum MIC (Table II), Staph. epi
Description: as §1

Strep. A = assay: standard in vitro agar dilution MIC (Table I), Strep. A; conditions: Table I, agar dilution, strain C203
H. influ. [5] = assay: Expanded Spectrum MIC (Table II), H. influ.
Description: as §1

Staph. aureus [6] = assay: Expanded Spectrum MIC (Table II), Staph. aureus
Description: as §1

Klebsiella = assay: standard in vitro agar dilution MIC (Table I), Klebsiella; conditions: Table I, agar dilution
Strep. PN = assay: standard in vitro agar dilution MIC (Table I), Strep. PN; conditions: strain PARK
E. coli = assay: standard in vitro agar dilution MIC (Table I), E. coli; conditions: Escherichia coli
Strep. D = assay: standard in vitro agar dilution MIC (Table I), Strep. D
[7] = Staphylococcus aureus, strain V41, read-out: MIC
[8] = Staphylococcus aureus, strain X1.1, read-out: MIC
[9] = Staphylococcus aureus, strain X400, read-out: MIC
[10] = Klebsiella, strain X26, read-out: MIC

CC1=C(C(=O)O)N2C(=O)C(NC(=O)[C@H](N)c3cc4cc(Cl)ccc4s3)C2SC1 (stereo partly drawn) [Ex. 2, D-7-(5-Chloro-2-benzothienyl)glycylamido-3-methyl-3-cephem-4-carboxylic acid]
MIC (Staph. epi [1]; strain 222, read-out: MIC): 1 mg/L (≈ 2.28 µM)
MIC (Staph. epi [1]; strain EPI1, read-out: MIC): 4 mg/L (≈ 9.13 µM)
MIC (Staph. aureus [2]; [7]): 32 mg/L (≈ 73.1 µM)
MIC (Staph. aureus [2]; [8]): 0.5 mg/L (≈ 1.14 µM)
MIC (Staph. aureus [2]; [9]): 64 mg/L (≈ 146 µM)
MIC (H. influ. [3]; strain 76, read-out: MIC): 0.5 mg/L (≈ 1.14 µM)
MIC (H. influ. [3]; strain C.L., read-out: MIC): 2 mg/L (≈ 4.57 µM)
MIC (Staph. epi [4]; strain 219, read-out: MIC): 0.25 mg/L (≈ 0.571 µM)
MIC (Staph. epi [4]; strain 269, read-out: MIC): 1 mg/L (≈ 2.28 µM)
MIC (Staph. epi [4]; strain 270, read-out: MIC): 1 mg/L (≈ 2.28 µM)
MIC (Staph. epi [4]; strain 285, read-out: MIC): 0.5 mg/L (≈ 1.14 µM)
MIC (Staph. epi [4]; strain 286, read-out: MIC): 0.25 mg/L (≈ 0.571 µM)
MIC (Staph. epi [4]; strain EPI1, read-out: MIC): 4 mg/L (≈ 9.13 µM)
MIC (Strep. A; read-out: MIC): 0.125 mg/L (≈ 0.285 µM)
MIC (H. influ. [5]; strain 76, read-out: MIC): 8 mg/L (≈ 18.3 µM)
MIC (H. influ. [5]; strain 1683, read-out: MIC): 1 mg/L (≈ 2.28 µM)
MIC (H. influ. [5]; strain C.L., read-out: MIC): 32 mg/L (≈ 73.1 µM)
MIC (H. influ. [5]; strain M366): > 64 mg/L
MIC (H. influ. [5]; strain STEL): > 64 mg/L
MIC (Staph. aureus [6]; Staphylococcus aureus, strain 239, read-out: MIC): 0.5 mg/L (≈ 1.14 µM)
MIC (Staph. aureus [6]; Staphylococcus aureus, strain S224, read-out: MIC): 0.25 mg/L (≈ 0.571 µM)
MIC (Staph. aureus [6]; Staphylococcus aureus, strain S225, read-out: MIC): 0.25 mg/L (≈ 0.571 µM)
MIC (Staph. aureus [6]; Staphylococcus aureus, strain S226, read-out: MIC): 0.5 mg/L (≈ 1.14 µM)
MIC (Staph. aureus [6]; Staphylococcus aureus, strain S227, read-out: MIC): 0.25 mg/L (≈ 0.571 µM)
MIC (Staph. aureus [6]; Staphylococcus aureus, strain S228, read-out: MIC): 0.25 mg/L (≈ 0.571 µM)
MIC (Staph. aureus [6]; Staphylococcus aureus, strain S229, read-out: MIC): 0.5 mg/L (≈ 1.14 µM)
MIC (Staph. aureus [6]; Staphylococcus aureus, strain S230, read-out: MIC): 0.25 mg/L (≈ 0.571 µM)
MIC (Staph. aureus [6]; Staphylococcus aureus, strain S231, read-out: MIC): 0.25 mg/L (≈ 0.571 µM)
MIC (Staph. aureus [6]; Staphylococcus aureus, strain S234, read-out: MIC): 0.5 mg/L (≈ 1.14 µM)
MIC (Staph. aureus [6]; Staphylococcus aureus, strain S237, read-out: MIC): 0.5 mg/L (≈ 1.14 µM)
MIC (Staph. aureus [6]; Staphylococcus aureus, strain S238, read-out: MIC): 1 mg/L (≈ 2.28 µM)
MIC (Klebsiella; [10]): 32 mg/L (≈ 73.1 µM)
MIC (Strep. PN; read-out: MIC): 0.5 mg/L (≈ 1.14 µM)

CC1=C(C(=O)O)N2C(=O)C(NC(=O)[C@@H](N)c3cc4c(Cl)cccc4s3)C2SC1 (stereo partly drawn) [Ex. 7B, L-7-(4-chloro-2-benzothienylglycylamido)-3-methyl-3-cephem-4-carboxylic acid]
MIC (E. coli; strain EC14): > 128 mg/L
MIC (E. coli; strain N10): > 128 mg/L
MIC (E. coli; strain TEM): > 128 mg/L
MIC (Staph. epi [1]; strain 222, read-out: MIC): 4 mg/L (≈ 9.13 µM)
MIC (Staph. epi [1]; strain EPI1, read-out: MIC): 8 mg/L (≈ 18.3 µM)
MIC (Staph. aureus [2]; [7]): 16 mg/L (≈ 36.5 µM)
MIC (Staph. aureus [2]; [8]): 2 mg/L (≈ 4.57 µM)
MIC (Staph. aureus [2]; [9]): 128 mg/L (≈ 292 µM)
MIC (H. influ. [3]; strain 76, read-out: MIC): 4 mg/L (≈ 9.13 µM)
MIC (H. influ. [3]; strain C.L., read-out: MIC): 64 mg/L (≈ 146 µM)
MIC (Strep. A; read-out: MIC): 0.5 mg/L (≈ 1.14 µM)
MIC (Klebsiella; Klebsiella, strain KAE, read-out: MIC): > 128 mg/L
MIC (Klebsiella; [10]): 32 mg/L (≈ 73.1 µM)
MIC (Klebsiella; Klebsiella, strain X68, read-out: MIC): > 128 mg/L
MIC (Strep. PN; read-out: MIC): 2 mg/L (≈ 4.57 µM)
MIC (Strep. D; strain 2041, read-out: MIC): 128 mg/L (≈ 292 µM)
MIC (Strep. D; strain X66, read-out: MIC): > 128 mg/L

CC1=C(C(=O)O)N2C(=O)C(NC(=O)C(N)c3cc4c(s3)CCCC4)C2SC1 [Ex. 5, D-7-[(4,5,6,7-tetrahydro-2-benzothienyl)glycylamido]-3-methyl-3-cephem-4-carboxylic acid]
MIC (Staph. epi [1]; strain 222): 0.5 mg/L (≈ 1.23 µM)
MIC (Staph. epi [1]; strain EPI1): 2 mg/L (≈ 4.91 µM)
MIC (Staph. aureus [2]; strain S13E): 8 mg/L (≈ 19.6 µM)
MIC (Staph. aureus [2]; strain V41): 16 mg/L (≈ 39.3 µM)
MIC (Staph. aureus [2]; strain X1.1): 0.25 mg/L (≈ 0.613 µM)
MIC (Staph. aureus [2]; strain X400): 64 mg/L (≈ 157 µM)
MIC (H. influ. [3]; strain 76): 4 mg/L (≈ 9.82 µM)
MIC (H. influ. [3]; strain C.L.): 16 mg/L (≈ 39.3 µM)
MIC (Staph. epi [4]; strain 219): 0.5 mg/L (≈ 1.23 µM)
MIC (Staph. epi [4]; strain 269): 2 mg/L (≈ 4.91 µM)
MIC (Staph. epi [4]; strain 270): 0.5 mg/L (≈ 1.23 µM)
MIC (Staph. epi [4]; strain 285): 1 mg/L (≈ 2.45 µM)
MIC (Staph. epi [4]; strain 286): 0.25 mg/L (≈ 0.613 µM)
MIC (Staph. epi [4]; strain EPI1): 4 mg/L (≈ 9.82 µM)
MIC (Strep. A): 0.06 mg/L (≈ 0.147 µM)
MIC (H. influ. [5]; strain 76): 8 mg/L (≈ 19.6 µM)
MIC (H. influ. [5]; strain 105): 4 mg/L (≈ 9.82 µM)
MIC (H. influ. [5]; strain 158): 4 mg/L (≈ 9.82 µM)
MIC (H. influ. [5]; strain 164): 4 mg/L (≈ 9.82 µM)
MIC (H. influ. [5]; strain 169): 16 mg/L (≈ 39.3 µM)
MIC (H. influ. [5]; strain 171): 16 mg/L (≈ 39.3 µM)
MIC (H. influ. [5]; strain 312): 4 mg/L (≈ 9.82 µM)
MIC (H. influ. [5]; strain 1683): 4 mg/L (≈ 9.82 µM)
MIC (H. influ. [5]; strain 1930): 16 mg/L (≈ 39.3 µM)
MIC (H. influ. [5]; strain 4842): 4 mg/L (≈ 9.82 µM)
MIC (H. influ. [5]; strain C.L.): 16 mg/L (≈ 39.3 µM)
MIC (H. influ. [5]; strain HESS): 16 mg/L (≈ 39.3 µM)
MIC (H. influ. [5]; strain M366): > 64 mg/L
MIC (H. influ. [5]; strain M370): 4 mg/L (≈ 9.82 µM)
MIC (H. influ. [5]; strain M371): 4 mg/L (≈ 9.82 µM)
MIC (H. influ. [5]; strain R465): 16 mg/L (≈ 39.3 µM)
MIC (H. influ. [5]; strain STEL): > 64 mg/L
MIC (Staph. aureus [6]; strain 239): 0.5 mg/L (≈ 1.23 µM)
MIC (Staph. aureus [6]; strain S224): 0.5 mg/L (≈ 1.23 µM)
MIC (Staph. aureus [6]; strain S225): 0.5 mg/L (≈ 1.23 µM)
MIC (Staph. aureus [6]; strain S226): 0.5 mg/L (≈ 1.23 µM)
MIC (Staph. aureus [6]; strain S227): 0.5 mg/L (≈ 1.23 µM)
MIC (Staph. aureus [6]; strain S228): 0.5 mg/L (≈ 1.23 µM)
MIC (Staph. aureus [6]; strain S229): 1 mg/L (≈ 2.45 µM)
MIC (Staph. aureus [6]; strain S230): 0.5 mg/L (≈ 1.23 µM)
MIC (Staph. aureus [6]; strain S231): 0.25 mg/L (≈ 0.613 µM)
MIC (Staph. aureus [6]; strain S234): 1 mg/L (≈ 2.45 µM)
MIC (Staph. aureus [6]; strain S237): 0.5 mg/L (≈ 1.23 µM)
MIC (Staph. aureus [6]; strain S238): 1 mg/L (≈ 2.45 µM)
MIC (Klebsiella; strain X26): 2 mg/L (≈ 4.91 µM)
MIC (Strep. PN): 0.25 mg/L (≈ 0.613 µM)
